Test results: paper PMC4482421 (ACS Nano, 2015)
Square brackets hold non-standard residues; d marks the D form. Peptide text beside a SMILES is read from it. pS = N[C@@H](COP(=O)(O)O)C(=O)O

Columns and labels:
[1] = system: human coronary artery vascular smooth muscle cells (HCAVSMCs); assay: Cytotoxicity assay; assay type: cell-based; conditions: 10–500 μM peptide, 2 h treatment, then 24 h in fresh medium
[2] = system: human saphenous vein (HSV) rings; assay: Inhibition of phenylephrine-induced HSV contraction; conditions: HSV rings ex vivo; 2 h treatment; 1 μM phenylephrine; n ≥ 3 donors

CC(C)C[C@H](NC(=O)CNC(=O)[C@@H]1CCCN1C(=O)[C@H](CC(C)C)NC(=O)[C@@H]1CCCN1C(=O)[C@H](C)NC(=O)[C@H](COP(=O)(O)O)NC(=O)[C@H](C)NC(=O)[C@H](CCCNC(=N)N)NC(=O)[C@H](CCCNC(=N)N)NC(=O)[C@H](CC(C)C)NC(=O)[C@H](Cc1c[nH]c2ccccc12)NC(=O)[C@H](C)NC(=O)[C@H](CCCNC(=N)N)NC(=O)[C@H](C)NC(=O)[C@H](CCC(N)=O)NC(=O)[C@H](CCCNC(=N)N)NC(=O)[C@H](C)NC(=O)[C@H](C)NC(=O)[C@H](C)NC(=O)[C@H](CCCNC(=N)N)NC(=O)[C@H](C)NC(=O)[C@@H](N)Cc1ccc(O)cc1)C(=O)N[C@@H](CCCCN)C(=O)O [p-HSP20] (H-YARAAARQARAWLRRA[pS]APLPGLK-OH; N-terminus and C-terminus assumed)
cytotoxicity / biocompatibility [1]: biocompatible with the exception of mild cytotoxicity detected at 500 μM | inhibition of PE-induced HSV contraction [2]: significantly inhibited the second PE-induced HSV contraction
